Entries after “also recorded” stand apart in the source; their conditions may differ. Where two headings read alike, the source gives them in different places.
Legend:
[1] = Crystal polymorph screening by the heating method; type: physicochemical; conditions: open vial, oven 60° C. or 80° C.
Procedure: 30 mg of the compound of Synthesis Example 12 was placed in an open vial, and incubated in an oven heated to 60° C. or 80° C. for 19 hours or for 91 hours. After completion of the incubation, XRPD analysis and polarizing microscope observation were performed. FIG. 26 and FIG. 27 show the results.

[2] = Approximate solubility by manual dilution and visual observation; type: physicochemical; conditions: 25° C.; for solubility: thermodynamic from solid, read-out: Solubility at 25° C. S
Procedure: The approximate solubility of the calcium salt in different solvents at 25° C. was tested by manual dilutions in combination with visual observation.

[3] = test system: patients with Alzheimer's disease or patients with cerebrovascular dementia; conditions: reported in literature; cited from earlier work

Row | Compound | Changes in morphology or XRPD pattern on heating ([1]; 19 hours) | Morphological changes on heating ([1]; 91 hours) | solubility ([2]; 2-propanol (printed 2-Promanol), organic solvent or mixture, 2-Promanol) | Solubility in words ([2]; different solvents) | solubility ([2]; organic solvent or mixture, Acetone) | solubility ([2]; organic solvent or mixture, CAN) | solubility ([2]; organic solvent or mixture, EA) | solubility ([2]; organic solvent or mixture, Ethanol) | solubility ([2]; organic solvent or mixture, MEK) | solubility ([2]; organic solvent or mixture, MtBE) | solubility ([2]; organic solvent or mixture, THF) | solubility ([2]; Water) | Effect on arousal, mood, semantic memory in patients [3]
1 | CCCCCC[C@@H](CCC)C(=O)[O][Ca][O]C(=O)[C@@H](CCC)CCCCCC [Compound of Synthesis Example 12, calcium (R)-2-propyloctanoate (S)-2-propyloctanoate] | no changes in morphology or XRPD pattern were observed | no morphological changes of the compound were observed | > 210 mg/mL | poorly soluble in water; also recorded: dissolved in ethanol, 2-propanol, MtBE, EA, and THF | < 1.7 mg/mL | < 1.5 mg/mL | > 199 mg/mL | > 185 mg/mL | 94.4 to 189 mg/mL | > 215 mg/mL | > 198 mg/mL | < 1 mg/mL | 
2 | NC(=O)[C@@H]1CCCN1C(=O)[C@H](Cc1cnc[nH]1)NC(=O)[C@@H]1CCC(=O)N1 [TRH] |  |  |  |  |  |  |  |  |  |  |  |  | improve the level of arousal, mood, semantic memory

— patent publication US10828303B2, “Composition comprising combination of TRH analog with arundic acid, and pharmaceutically acceptable salt of arundic acid” (Brivention Pharmaceutical (Shanghai) Inc., priority 2016, dated 2020)
